# Patent publication EP2951180B1, “2,6,7,8 SUBSTITUTED PURINES AS HDM2 INHIBITORS” (Merck Sharp & Dohme Corp., priority 2013, dated 2014)
# Target: T1, HDM2 (Homo sapiens, UniProt Q00987)
# T1 construct: Thioredoxin (N); made in house; host or cells: E. coli strain BL21(DE3)Rosetta
# Experiment: HDM2 FRET assay (inhibition of binding of FITC labeled p53-pocket peptide to HDM2)
# Conditions: Table 11; read-out: FRET IC50
# Summary of the method: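 Displacement of FITC-p53 peptide (3 nM) from His-tagged HDM2 (0.5 nM) is measured by Tb-to-fluorescein FRET in PBS, 0.01% BSA, 0.01% Tween-20. IC50 values derive from 10-point curves.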
# T1 sequence (Q00987 17-125): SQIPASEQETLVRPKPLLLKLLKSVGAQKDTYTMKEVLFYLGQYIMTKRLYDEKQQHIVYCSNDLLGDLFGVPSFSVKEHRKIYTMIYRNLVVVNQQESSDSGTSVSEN
row,Structure (SMILES),IC50 [nM]
1,"CCN(C)c1nc2nc(-c3noc(=O)[nH]3)nc(N[C@H](C)C3CCC3)c2n1C[C@H]1CC[C@H](C)CC1 [Example 11.115, 3-(6-{[(1R)-1-cyclobutylethyl]amino}-8-[ethyl(methyl)amino]-7-[(trans-4-methylcyclohexyl)methyl]-7H-purin-2-yl)-1,2,4-oxadiazol-5(2H)-one]",8.13
2,"COCCN(C)c1nc2nc(-c3noc(=O)[nH]3)nc(N[C@H](C)C3CCC3)c2n1C[C@H]1CC[C@H](C)CC1 [Example 11.116, 3-(6-{[(1R)-1-cyclobutylethyl]amino}-8-[(2-methoxyethyl)(methyl)amino]-7-[(trans-4-methylcyclohexyl)methyl]-7H-purin-2-yl)-1,2,4-oxadiazol-5(2H)-one]",21
3,"C[C@@H](Nc1nc(-c2noc(=O)[nH]2)nc2nc(N3CCOCC3c3ccc(Cl)cc3)n(C[C@H]3CC[C@H](C)CC3)c12)C1CCC1 (stereo partly drawn) [Example 11.119, 3-{8-[3-(4-chlorophenyl)morpholin-4-yl]-6-{[(1R)-1-cyclobutylethyl]amino}-7-[(trans-4-methylcyclohexyl)methyl]-7H-purin-2-yl}-1,2,4-oxadiazol-5(4H)-one]",24.8
4,"C[C@@H]1CN(C)C(=O)CN1c1nc2nc(-c3noc(=O)[nH]3)nc(N[C@H](C)C3CCC3)c2n1C[C@H]1CC[C@H](C)CC1 [Example 11.120, (5R)-4-[6-{[(1R)-1-cyclobutylethyl]amino}-7-[(trans-4-methylcyclohexyl)methyl]-2-(5-oxo-4,5-dihydro-1,2,4-oxadiazol-3-yl)-7H-purin-8-yl]-1,5-dimethylpiperazin-2-one]",5.57
5,"CC1CSCCN1c1nc2nc(-c3noc(=O)[nH]3)nc(N[C@H](C)C3CCC3)c2n1C[C@H]1CC[C@H](C)CC1 (stereo partly drawn) [Example 11.123, 3-[6-{[(1R)-1-cyclobutylethyl]amino}-7-[(trans-4-methylcyclohexyl)methyl]-8-(3-methylthiomorpholin-4-yl)-7H-purin-2-yl]-1,2,4-oxadiazol-5(2H)-one]",4.39
6,"CC1CS(=O)(=O)CCN1c1nc2nc(-c3noc(=O)[nH]3)nc(N[C@H](C)C3CCC3)c2n1C[C@H]1CC[C@H](C)CC1 (stereo partly drawn) [Example 11.124, 3-[6-{[(1R)-1-cyclobutylethyl]amino}-7-[(trans-4-methylcyclohexyl)methyl]-8-(3-methyl-1,1-dioxidothiomorpholin-4-yl)-7H-purin-2-yl]-1,2,4-oxadiazol-5(2H)-one]",9.62
7,"C[C@@H](Nc1nc(-c2noc(=O)[nH]2)nc2nc(N3CCOC4CC43)n(C[C@H]3CC[C@H](C)CC3)c12)C1CCC1 (stereo partly drawn) [Example 11.127, 3-[6-{[(1R)-1-cyclobutylethyl]amino}-7-[(trans-4-methylcyclohexyl)methyl]-8-(2-oxa-5-azabicyclo[4.1.0]hept-5-yl)-7H-purin-2-yl]-1,2,4-oxadiazol-5(4H)-one]",26.2
8,"C[C@@H](Nc1nc(-c2noc(=O)[nH]2)nc2nc(N3CCC[C@H]3C(F)(F)F)n(C[C@H]3CC[C@H](C)CC3)c12)C1CCC1 [Example 11.128, 3-(6-{[(1R)-1-cyclobutylethyl]amino}-7-[(trans-4-methylcyclohexyl)methyl]-8-[(2S)-2-(trifluoromethyl)pyrrolidin-1-yl]-7H-purin-2-yl)-1,2,4-oxadiazol-5(4H)-one]",0.642
9,"C[C@@H]1COC[C@@H](C)N1c1nc2nc(-c3noc(=O)[nH]3)nc(N[C@H](C)C3CCC3)c2n1C[C@H]1CC[C@H](C)CC1 [Example 11.129, 3-(6-{[(1R)-1-cyclobutylethyl]amino}-8-[(3R,5R)-3,5-dimethylmorpholin-4-yl]-7-[(trans-4-methylcyclohexyl)methyl]-7H-purin-2-yl)-1,2,4-oxadiazol-5(4H)-one]",0.788
10,"C[C@@H](Nc1nc(-c2noc(=O)[nH]2)nc2nc(N3CCCC3c3ccccc3)n(C[C@H]3CC[C@H](C)CC3)c12)C1CCC1 (stereo partly drawn) [Example 11.130, 3-[6-{[(1R)-1-cyclobutylethyl]amino}-7-[(trans-4-methylcyclohexyl)methyl]-8-(2-phenylpyrrolidin-1-yl)-7H-purin-2-yl]-1,2,4-oxadiazol-5(4H)-one]",2.05
11,"C[C@@H](Nc1nc(-c2n[nH]c(=O)o2)nc2nc(N3CCC[C@H]3C(F)(F)F)n(C[C@H]3CC[C@H](C)CC3)c12)C1CCC1 [Example 11.137, 5-(6-{[(1R)-1-cyclobutylethyl]amino}-7-[(trans-4-methylcyclohexyl)methyl]-8-[(2S)-2-(trifluoromethyl)pyrrolidin-1-yl]-7H-purin-2-yl)-1,3,4-oxadiazol-2(3H)-one]",0.881
12,"C[C@@H](Nc1nc(-c2noc(=O)[nH]2)nc2nc(N3CCOC[C@H]3c3ccccn3)n(C[C@H]3CC[C@H](C)CC3)c12)C1CCC1 [Example 11.142, 3-(6-{[(1R)-1-cyclobutylethyl]amino}-7-[(trans-4-methylcyclohexyl)methyl]-8-[(3R)-3-pyridin-2-ylmorpholin-4-yl]-7H-purin-2-yl)-1,2,4-oxadiazol-5(4H)-one]",0.774
13,"C[C@@H](Nc1nc(-c2noc(=O)[nH]2)nc2nc(N3CCOC[C@H]3c3ccncc3)n(C[C@H]3CC[C@H](C)CC3)c12)C1CCC1 [Example 11.145, 3-(6-{[(1R)-1-cyclobutylethyl]amino}-7-[(trans-4-methylcyclohexyl)methyl]-8-[(3R)-3-pyridin-4-ylmorpholin-4-yl]-7H-purin-2-yl)-1,2,4-oxadiazol-5(4H)-one]",1.31
14,"C[C@@H](Nc1nc(-c2noc(=O)[nH]2)nc2nc(N3CC4CC4C3C(F)(F)F)n(C[C@H]3CC[C@H](C)CC3)c12)C1CCC1 (stereo partly drawn) [Example 11.152, 3-(6-{[(1R)-1-cyclobutylethyl]amino}-7-[(trans-4-methylcyclohexyl)methyl]-8-[2-(trifluoromethyl)-3-azabicyclo[3.1.0]hex-3-yl]-7H-purin-2-yl)-1,2,4-oxadiazol-5(4H)-one]",3.09
15,"C[C@@H](Nc1nc(-c2noc(=O)[nH]2)nc2nc(N3CCCC3CS(C)(=O)=O)n(C[C@H]3CC[C@H](C)CC3)c12)C1CCC1 (stereo partly drawn) [Example 11.153, 3-(6-{[(1R)-1-cyclobutylethyl]amino}-7-[(trans-4-methylcyclohexyl)methyl]-8-{2-[(methylsulfonyl)methyl]pyrrolidin-1-yl}-7H-purin-2-yl)-1,2,4-oxadiazol-5(4H)-one]",65.6
16,"C[C@@H]1OCCN(c2nc3nc(-c4noc(=O)[nH]4)nc(N[C@H](C)C4CCC4)c3n2C[C@H]2CC[C@H](C)CC2)[C@@H]1c1ccccc1 [Example 11.163, 3-(6-{[(1R)-1-cyclobutylethyl]amino}-7-[(trans-4-methylcyclohexyl)methyl]-8-[(2S,3R)-2-methyl-3-phenylmorpholin-4-yl]-7H-purin-2-yl)-1,2,4-oxadiazol-5(4H)-one]",21.2
17,"C[C@@H]1OCCN(c2nc3nc(-c4n[nH]c(=O)o4)nc(N[C@H](C)C4CCC4)c3n2C[C@H]2CC[C@H](C)CC2)[C@@H]1c1ccccc1 [Example 11.164, 5-(6-{[(1R)-1-cyclobutylethyl]amino}-7-[(trans-4-methylcyclohexyl)methyl]-8-[(2S,3R)-2-methyl-3-phenylmorpholin-4-yl]-7H-purin-2-yl)-1,3,4-oxadiazol-2(3H)-one]",31
